Measured values taken from ChEMBL document CHEMBL1123679, “5-Quinone derivatives of 2'-deoxyuridine 5'-phosphate: inhibition and inactivation of thymidylate synthase, antitumor cell, and antiviral studies” (J Med Chem, 1987).
≈ marks a conversion by molar mass, not a printed value.

Legend:
Oryctolagus cuniculus [1] = organism: Oryctolagus cuniculus; experiment: Minimal inhibitory concentration against HSV-1 (F)-induced cytopathogenicity by 50% in rabbit kidney cell cultures; format: functional
Oryctolagus cuniculus [2] = organism: Oryctolagus cuniculus; experiment: Minimal inhibitory concentration against vesicular stomatitis virus-induced cytopathogenicity by 50% in rabbit kidney cell cultures; format: functional
Oryctolagus cuniculus [3] = organism: Oryctolagus cuniculus; experiment: Minimal inhibitory concentration against HSV-1 (KOS)-induced cytopathogenicity by 50% in rabbit kidney cell cultures; format: functional
[4] = Ability to inhibit the proliferation or tumor cell growth by 50% of the human T-cell lymphoblast (Molt/4F) cells was determined; format: functional; conditions: read-out: ID50 (the source's name)
Oryctolagus cuniculus [5] = organism: Oryctolagus cuniculus; experiment: Minimal inhibitory concentration against HSV-1 (McIntyre)-induced cytopathogenicity by 50% in rabbit kidney cell cultures; format: functional
Oryctolagus cuniculus [6] = organism: Oryctolagus cuniculus; experiment: Minimal inhibitory concentration against vaccinia virus-induced cytopathogenicity by 50% in rabbit kidney cell cultures; format: functional
Raji [7] = experiment: Inhibition of human B-cell lymphoblast Raji cell proliferation; format: functional; conditions: read-out: ID50 (the source's name)
L1210 = experiment: Ability to inhibit the proliferation or tumor cell growth by 50% of the murine leukemia L1210 cells was determined; format: functional; conditions: Mus musculus, read-out: ID50 (the source's name)
Oryctolagus cuniculus [8] = organism: Oryctolagus cuniculus; experiment: Minimal inhibitory concentration against HSV-2 (196)-induced cytopathogenicity by 50% in rabbit kidney cell cultures; format: functional
Oryctolagus cuniculus [9] = organism: Oryctolagus cuniculus; experiment: Minimal inhibitory concentration against HSV-2 (Lyons)-induced cytopathogenicity by 50% in rabbit kidney cell cultures; format: functional
Oryctolagus cuniculus [10] = organism: Oryctolagus cuniculus; experiment: Minimal inhibitory concentration against HSV-2 (G)-induced cytopathogenicity by 50% in rabbit kidney cell cultures; format: functional
Oryctolagus cuniculus [11] = organism: Oryctolagus cuniculus; experiment: Minimal inhibitory concentration required to cause a microscopically detectable alteration of normal cell morphology of rabbit kidney cell cultures; format: functional
Thymidylate synthase [12] = target: T1, Thymidylate synthase (Lactobacillus casei, UniProt P00469); experiment: Ability to inhibit the thymidylate synthase from Lactobacillus casei was determined and expressed as inhibition constant(Ki); parameters: species or system Lacticaseibacillus casei
T1 sequence (P00469 whole entry): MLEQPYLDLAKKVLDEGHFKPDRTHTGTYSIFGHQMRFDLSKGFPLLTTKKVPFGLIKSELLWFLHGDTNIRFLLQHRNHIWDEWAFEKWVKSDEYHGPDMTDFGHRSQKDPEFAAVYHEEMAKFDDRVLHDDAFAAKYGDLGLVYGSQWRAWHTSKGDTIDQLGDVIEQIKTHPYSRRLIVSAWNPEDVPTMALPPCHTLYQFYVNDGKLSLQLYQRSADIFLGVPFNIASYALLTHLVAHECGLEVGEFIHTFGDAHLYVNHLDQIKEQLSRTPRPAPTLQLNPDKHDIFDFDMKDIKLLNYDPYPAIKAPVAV

Thymidylate synthase [13] = target: Thymidylate synthase (Mus musculus, UniProt P07607); experiment: Ability to inhibit the thymidylate synthase from murine leukemia L1210 cells was determined and expressed as inhibition constant(Ki); format: cell-based
Thymidylate synthase (Mus musculus, UniProt P07607), sequence (P07607 whole entry): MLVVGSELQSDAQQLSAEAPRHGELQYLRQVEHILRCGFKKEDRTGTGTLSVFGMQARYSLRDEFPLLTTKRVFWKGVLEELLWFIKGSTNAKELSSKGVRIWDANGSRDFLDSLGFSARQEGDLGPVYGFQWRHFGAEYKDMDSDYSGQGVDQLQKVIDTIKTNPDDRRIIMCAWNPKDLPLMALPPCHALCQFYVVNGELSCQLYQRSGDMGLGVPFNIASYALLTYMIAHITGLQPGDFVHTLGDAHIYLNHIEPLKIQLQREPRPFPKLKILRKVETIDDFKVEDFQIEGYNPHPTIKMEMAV

Raji [14] = experiment: Inhibition of human B-cell lymphoblast Raji cell proliferation; Value ranges from (10-55.6); format: functional; conditions: read-out: ID50 (the source's name)
Oryctolagus cuniculus [15] = organism: Oryctolagus cuniculus; experiment: Minimal inhibitory concentration required to cause a microscopically detectable alteration of normal cell morphology of rabbit kidney cell culture; format: functional
Thymidylate synthase [16] = target: T1, Thymidylate synthase; experiment: Ability to inhibit the thymidylate synthase from Lactobacillus casei was determined and expressed as inhibition constant (Ki); parameters: species or system Lacticaseibacillus casei

| Structure (SMILES) | MIC (Oryctolagus cuniculus [1]) [µg/mL] | MIC (Oryctolagus cuniculus [2]) [µg/mL] | MIC (Oryctolagus cuniculus [3]) [µg/mL] | IC50 [4] [µg/mL] | MIC (Oryctolagus cuniculus [5]) [µg/mL] | MIC (Oryctolagus cuniculus [6]) [µg/mL] | IC50 (Raji [7]) [µg/mL] | IC50 (L1210) [µg/mL] | MIC (Oryctolagus cuniculus [8]) [µg/mL] | MIC (Oryctolagus cuniculus [9]) [µg/mL] | MIC (Oryctolagus cuniculus [10]) [µg/mL] | Ki (Thymidylate synthase [12]) [µM] | other results |
| --- | --- | --- | --- | --- | --- | --- | --- | --- | --- | --- | --- | --- | --- |
| CC1=C(C)C(=O)C(c2cn([C@H]3C[C@H](O)[C@@H](CO)O3)c(=O)[nH]c2=O)=CC1=O | > 100 | > 100 | 150 (≈ 414 µM) | 66.8 (≈ 184 µM) | 70 (≈ 193 µM) | > 100 | > 100 | 40.5 (≈ 112 µM) | 70 (≈ 193 µM) | 70 (≈ 193 µM) | > 100 | – | MIC (Oryctolagus cuniculus [11]): 200 µg/mL (≈ 552 µM) |
| CC1=C(c2cn([C@H]3C[C@H](O)[C@@H](COP(=O)(O)O)O3)c(=O)[nH]c2=O)C(=O)c2ccccc2C1=O | – | – | – | – | – | – | – | – | – | – | – | 0.61 | Ki (Thymidylate synthase [13]): 1.9 µM |
| COc1c(C)c(C)c(OC)c(-c2cn([C@H]3C[C@H](O)[C@@H](COP(=O)(O)O)O3)c(=O)[nH]c2=O)c1C | – | – | – | – | – | – | – | – | – | – | – | 1.4 | – |
| COc1c(C)c(-c2cn([C@H]3C[C@H](O)[C@@H](CO)O3)c(=O)[nH]c2=O)c(OC)c2ccccc12 | – | – | – | > 100 | – | – | – | > 100 | – | – | – | – | IC50 (Raji [14]): 55.6 µg/mL (≈ 130 µM) |
| O=C1C=CC(=O)C(c2cn([C@H]3C[C@H](O)[C@@H](COP(=O)(O)O)O3)c(=O)[nH]c2=O)=C1 | – | – | – | – | – | – | – | – | – | – | – | 2 | – |
| COc1c(C)c(-c2cn([C@H]3C[C@H](O)[C@@H](COP(=O)(O)O)O3)c(=O)[nH]c2=O)c(OC)c2ccccc12 | – | – | – | – | – | – | – | – | – | – | – | 2.4 | – |
| COc1cc(-c2cn([C@H]3C[C@H](O)[C@@H](CO)O3)c(=O)[nH]c2=O)c(OC)c(C)c1C | – | – | – | > 100 | – | – | > 100 | > 100 | – | – | – | – | – |
| O=c1[nH]c(=O)n([C@H]2C[C@H](O)[C@@H](CO)O2)cc1Br [BROXURIDINE] | 0.07 (≈ 0.228 µM) | > 400 | 0.02 (≈ 0.0651 µM) | – | 0.02 (≈ 0.0651 µM) | 7 (≈ 22.8 µM) | – | – | 10 (≈ 32.6 µM) | 20 (≈ 65.1 µM) | 2 (≈ 6.51 µM) | – | MIC (Oryctolagus cuniculus [11]): > 400 µg/mL |
| O=c1[nH]c(=O)n([C@H]2C[C@H](O)[C@@H](CO)O2)cc1I [IDOXURIDINE] | 0.7 (≈ 1.98 µM) | > 400 | 0.2 (≈ 0.565 µM) | – | 0.7 (≈ 1.98 µM) | 0.7 (≈ 1.98 µM) | – | – | 1 (≈ 2.82 µM) | 0.7 (≈ 1.98 µM) | 0.7 (≈ 1.98 µM) | – | MIC (Oryctolagus cuniculus [15]): > 400 µg/mL |
| O=c1[nH]c(=O)n([C@H]2C[C@H](O)[C@@H](CO)O2)cc1[N+](=O)[O-] | – | – | – | – | – | – | – | 0.003 (≈ 0.011 µM) | – | – | – | – | – |
| COc1cc(-c2cn([C@H]3C[C@H](O)[C@@H](COP(=O)(O)O)O3)c(=O)[nH]c2=O)c(OC)c(C)c1C | – | – | – | – | – | – | – | – | – | – | – | – | Ki (Thymidylate synthase [16]): 3.6 µM |
| CC1=C(C)C(=O)C(c2cn([C@H]3C[C@H](O)[C@@H](COP(=O)(O)O)O3)c(=O)[nH]c2=O)=C(C)C1=O | – | – | – | – | – | – | – | – | – | – | – | 1.3 | Ki (Thymidylate synthase [13]): 5.1 µM |
| O=C1C=CC(=O)C(c2cn([C@H]3C[C@H](O)[C@@H](CO)O3)c(=O)[nH]c2=O)=C1 | 20 (≈ 59.8 µM) | > 200 | 20 (≈ 59.8 µM) | > 100 | 150 (≈ 449 µM) | 70 (≈ 209 µM) | > 100 | 35.7 (≈ 107 µM) | 70 (≈ 209 µM) | 70 (≈ 209 µM) | 70 (≈ 209 µM) | – | – |
| COc1c(C)c(C)c(OC)c(-c2cn([C@H]3C[C@H](O)[C@@H](CO)O3)c(=O)[nH]c2=O)c1C | – | – | – | > 100 | – | – | > 100 | > 100 | – | – | – | – | – |
| CC1=C(C)C(=O)C(c2cn([C@H]3C[C@H](O)[C@@H](COP(=O)(O)O)O3)c(=O)[nH]c2=O)=CC1=O | – | – | – | – | – | – | – | – | – | – | – | 0.59 | Ki (Thymidylate synthase [13]): 6.1 µM |
| CC1=C(C)C(=O)C(c2cn([C@H]3C[C@H](O)[C@@H](CO)O3)c(=O)[nH]c2=O)=C(C)C1=O | > 200 | > 100 | > 200 | 29.7 (≈ 78.9 µM) | > 200 | > 200 | 51.1 (≈ 136 µM) | 65.6 (≈ 174 µM) | > 200 | > 200 | > 200 | – | MIC (Oryctolagus cuniculus [11]): > 200 µg/mL |
| CC1=C(c2cn([C@H]3C[C@H](O)[C@@H](CO)O3)c(=O)[nH]c2=O)C(=O)c2ccccc2C1=O | > 10 | > 10 | > 10 | 30.9 (≈ 77.6 µM) | > 10 | > 10 | 33.5 (≈ 84.1 µM) | 27.4 (≈ 68.8 µM) | > 10 | > 10 | > 10 | – | MIC (Oryctolagus cuniculus [11]): 40 µg/mL (≈ 100 µM) |
